Data as given in ChEMBL document CHEMBL1201862, “PubChem BioAssay data set” (2004).
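Method: 48-hour compound exposure of cells in 96-well plates, five concentrations, linear interpolation of endpoints. The concentration for 50% growth inhibition is given as GI50.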 Activity calls are given as the source filed them. Cut-off read from the data, not from the text of the source: active = GI50 up to about 1.1 µM and inactive = higher.

Experiments:
Assay in all cases: inhibition of tumour cell growth, NCI panel, 48 h
OVCAR-5 = system: OVCAR-5
HOP-62 = system: HOP-62
EKVX = system: EKVX
HCC 2998 = system: HCC 2998
UACC-257 = system: UACC-257
NCI/ADR-RES = system: NCI/ADR-RES
T47D = system: T47D
MCF7 = system: MCF7
MOLT-4 = system: MOLT-4
SR = system: SR
HCT-116 = system: HCT-116
UACC-62 = system: UACC-62
MDA-MB-231 = system: MDA-MB-231
Malme-3M = system: Malme-3M
ACHN = system: ACHN
A549 = system: A549
DU-145 = system: DU-145
SK-MEL-28 = system: SK-MEL-28

Row | Structure (SMILES) | GI50 (OVCAR-5) | GI50 (HOP-62) | GI50 (EKVX) | GI50 (HCC 2998) | GI50 (UACC-257) | GI50 (NCI/ADR-RES) | GI50 (T47D) | GI50 (MCF7) | GI50 (MOLT-4) | GI50 (SR) | GI50 (HCT-116) | GI50 (UACC-62) | GI50 (MDA-MB-231) | GI50 (Malme-3M) | GI50 (ACHN) | GI50 (A549) | GI50 (DU-145) | GI50 (SK-MEL-28)
1 | Cc1c2c(nc3ccccc13)C(=O)c1cccnc1C2=O | 60.4 µM (inactive) | 20.6 µM (inactive) | 20 µM (inactive) | 7.62 µM (inactive) | 6.97 µM (inactive) | 27.2 µM (inactive) | 26.7 µM (inactive) | 4.89 µM (inactive) | 9.71 µM (inactive) | 6.5 µM (inactive) | 3.91 µM (inactive) | 3.15 µM (inactive) | 8.34 µM (inactive) | 1.29 µM (inactive) | 10.6 µM (inactive) | 1.66 µM (inactive) | 21.6 µM (inactive) | 11.5 µM (inactive)
2 | O=c1[nH]c(=O)n(COCCOCc2ccccc2)cc1Nc1ccccc1 | > 100 µM (inactive) | > 100 µM (inactive) | > 100 µM (inactive) | > 100 µM (inactive) | > 100 µM (inactive) | > 100 µM (inactive) | 24.2 µM (inactive) | > 100 µM (inactive) | 59.4 µM (inactive) | > 100 µM (inactive) | > 100 µM (inactive) | > 100 µM (inactive) | > 100 µM (inactive) | > 100 µM (inactive) | > 100 µM (inactive) | > 100 µM (inactive) | > 100 µM (inactive) | > 100 µM (inactive)
3 | Cn1c(-c2cccs2)cc(-c2ccsc2)c1-c1cccs1 | > 100 µM (inactive) | > 100 µM (inactive) | 10.2 µM (inactive) | > 100 µM (inactive) | 52.2 µM (inactive) | > 100 µM (inactive) | 3.04 µM (inactive) | 5.97 µM (inactive) | 55.7 µM (inactive) | > 100 µM (inactive) | 16.3 µM (inactive) | 42.6 µM (inactive) | 99.1 µM (inactive) | > 100 µM (inactive) | 61.1 µM (inactive) | > 100 µM (inactive) | 87.1 µM (inactive) | 99.1 µM (inactive)
4 | OCC1OC(c2scc3c(=S)[nH]cnc23)C(O)C1O (stereo not drawn) | 26.1 µM (inactive) | 10.7 µM (inactive) | 76.2 µM (inactive) | 7.03 µM (inactive) | 42.4 µM (inactive) | 3.05 µM (inactive) | 0.82 µM (active) | 2.8 µM (inactive) | 4.25 µM (inactive) | 29.1 µM (inactive) | 5.3 µM (inactive) | 8.65 µM (inactive) | 4.61 µM (inactive) | 15.8 µM (inactive) | 4.84 µM (inactive) | 31.7 µM (inactive) | 0.859 µM (active) | 74 µM (inactive)
5 | CC(CO)CCNc1ncnc2c1ncn2CCC(=O)OC(C)(C)C (stereo not drawn) | > 100 µM (inactive) | > 100 µM (inactive) | > 100 µM (inactive) | > 100 µM (inactive) | > 100 µM (inactive) | > 100 µM (inactive) | > 100 µM (inactive) | > 100 µM (inactive) | > 100 µM (inactive) | > 100 µM (inactive) | > 100 µM (inactive) | > 100 µM (inactive) | > 100 µM (inactive) | > 100 µM (inactive) | > 100 µM (inactive) | > 100 µM (inactive) | > 100 µM (inactive) | > 100 µM (inactive)
6 | Cc1nc2c(nc1C)-c1c(c3c(n1Cc1ccccc1)C(=O)CCC3)C(=O)C2=O | 3.74 µM (inactive) | 8.79 µM (inactive) | 5.69 µM (inactive) | 2.86 µM (inactive) | 6.37 µM (inactive) | 3.84 µM (inactive) | 4.06 µM (inactive) | 2.29 µM (inactive) | 2.9 µM (inactive) | 2.1 µM (inactive) | 4.84 µM (inactive) | 14.5 µM (inactive) | 3.61 µM (inactive) | 3.35 µM (inactive) | 2.07 µM (inactive) | 3.93 µM (inactive) | 5.08 µM (inactive) | 2.02 µM (inactive)
